Where two headings read alike, the source gives them in different places.
System: mice
Test: Neuropharmacological Assay (SmartCube)
Assay type: in vivo
Settings: for minimal effective dose: Mus musculus, read-out: POTENCY (minimal effective dose, MED); for AD: ADHD (SmartCube probability) / AG: analgesic (SmartCube probability) / AX: anxiolytic (SmartCube probability) / CE: cognitive enhancer (SmartCube probability) / DP: anti-depressant (SmartCube probability) / MS: mood stabilizer (SmartCube probability) / PS: anti-psychotic (SmartCube probability) / SD: sedative hypnotic (SmartCube probability) / UN: uncharacterized CNS activity (SmartCube probability): mice, i.p. 15 min before test, most efficacious dose(s) of 3 doses
In short: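 Behavior of treated mice captured by digital video and matched algorithmically against reference drug classes, yielding a class probability at the most efficacious of 3 i.p. doses (15 min pretreatment, NMP/PEG/propylene glycol vehicle). Potency given as MED, the mpk dose reaching ≥50% total activity across usually 0.3–30 mpk.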

[1] = MED = dose having 50% or more total activity in SmartCube

| SMILES | minimal effective dose [1] | AD: ADHD (SmartCube probability) | AG: analgesic (SmartCube probability) | AX: anxiolytic (SmartCube probability) | CE: cognitive enhancer (SmartCube probability) | DP: anti-depressant (SmartCube probability) | MS: mood stabilizer (SmartCube probability) | PS: anti-psychotic (SmartCube probability) | SD: sedative hypnotic (SmartCube probability) | UN: uncharacterized CNS activity (SmartCube probability) | minimal effective dose |
| --- | --- | --- | --- | --- | --- | --- | --- | --- | --- | --- | --- |
| Cc1cccc2c1CCO[C@@H]2CN [Example 72, (S)-(5-methylisochroman-1-yl)methanamine] | 3 to 10 mg/kg | + (LOQ≤ + <5%) | + (LOQ≤ + <5%) | ++ (5%≤ ++ <25%) | + (LOQ≤ + <5%) | ++ (5%≤ ++ <25%) | + (LOQ≤ + <5%) | + (LOQ≤ + <5%) | + (LOQ≤ + <5%) | +++ (25%≤ +++ <50%) |  |
| Cc1cccc2c1CCO[C@H]2CN [Example 73, (R)-(5-methylisochroman-1-yl)methanamine] | < 3 mg/kg | + (LOQ≤ + <5%) | + (LOQ≤ + <5%) | ++ (5%≤ ++ <25%) | ++ (5%≤ ++ <25%) | +++ (25%≤ +++ <50%) | + (LOQ≤ + <5%) | + (LOQ≤ + <5%) | ++ (5%≤ ++ <25%) | ++++ (50%≤ ++++) |  |
| Cc1cccc2c1[C@@H](CN)OCC2 [Example 74, (S)-(8-methylisochroman-1-yl)methanamine] | 10 to 30 mg/kg | + (LOQ≤ + <5%) | + (LOQ≤ + <5%) | ++ (5%≤ ++ <25%) | + (LOQ≤ + <5%) | + (LOQ≤ + <5%) | + (LOQ≤ + <5%) | + (LOQ≤ + <5%) | ++ (5%≤ ++ <25%) | +++ (25%≤ +++ <50%) |  |
| Cc1cccc2c1[C@H](CN)OCC2 [Example 75, (R)-(8-methylisochroman-1-yl)methanamine] | 3 to 10 mg/kg | + (LOQ≤ + <5%) | ++ (5%≤ ++ <25%) | ++ (5%≤ ++ <25%) | ++ (5%≤ ++ <25%) | ++ (5%≤ ++ <25%) | + (LOQ≤ + <5%) | ++ (5%≤ ++ <25%) | + (LOQ≤ + <5%) | ++++ (50%≤ ++++) |  |
| CNC[C@H]1OCCc2c1cccc2C(F)(F)F [Example 78, (S)-N-methyl-1-(5-(trifluoromethyl)isochroman-1-yl)-methanamine] | 10 to 30 mg/kg | + (LOQ≤ + <5%) | ++ (5%≤ ++ <25%) | ++ (5%≤ ++ <25%) | + (LOQ≤ + <5%) | ++ (5%≤ ++ <25%) | + (LOQ≤ + <5%) | + (LOQ≤ + <5%) | + (LOQ≤ + <5%) | ++++ (50%≤ ++++) |  |
| CNC[C@@H]1OCCc2c1cccc2C(F)(F)F [Example 79] | < 3 mg/kg | ++ (5%≤ ++ <25%) | + (LOQ≤ + <5%) | + (LOQ≤ + <5%) | + (LOQ≤ + <5%) | ++++ (50%≤ ++++) | + (LOQ≤ + <5%) | + (LOQ≤ + <5%) | ++ (5%≤ ++ <25%) | + (LOQ≤ + <5%) |  |
| CNC[C@H]1OCCc2cc(Cl)ccc21 [Example 80, (S)-1-(6-chloroisochroman-1-yl)-N-methylmethanamine] | 10 to 30 mg/kg | + (LOQ≤ + <5%) | + (LOQ≤ + <5%) | ++ (5%≤ ++ <25%) | ++ (5%≤ ++ <25%) | ++ (5%≤ ++ <25%) | + (LOQ≤ + <5%) | +++ (25%≤ +++ <50%) | + (LOQ≤ + <5%) | + (LOQ≤ + <5%) |  |
| CNC[C@@H]1OCCc2cc(Cl)ccc21 [Example 81, (R)-1-(6-chloroisochroman-1-yl)-N-methylmethanamine] | < 3 mg/kg | ++ (5%≤ ++ <25%) | + (LOQ≤ + <5%) | ++ (5%≤ ++ <25%) | + (LOQ≤ + <5%) | ++++ (50%≤ ++++) | + (LOQ≤ + <5%) | + (LOQ≤ + <5%) | + (LOQ≤ + <5%) | ++ (5%≤ ++ <25%) |  |
| CN(C)C[C@H]1OCCc2cccc(F)c21 [Example 84, (S)-1-(8-fluoroisochroman-1-yl)-N,N-dimethylmethanamine] | < 3 mg/kg | + (LOQ≤ + <5%) | ++ (5%≤ ++ <25%) | ++ (5%≤ ++ <25%) | ++ (5%≤ ++ <25%) | ++ (5%≤ ++ <25%) | + (LOQ≤ + <5%) | ++ (5%≤ ++ <25%) | ++ (5%≤ ++ <25%) | ++++ (50%≤ ++++) |  |
| CN(C)C[C@@H]1OCCc2cccc(F)c21 [Example 85, (R)-1-(8-fluoroisochroman-1-yl)-N,N-dimethylmethanamine] | < 3 mg/kg | + (LOQ≤ + <5%) | + (LOQ≤ + <5%) | +++ (25%≤ +++ <50%) | ++ (5%≤ ++ <25%) | ++ (5%≤ ++ <25%) | + (LOQ≤ + <5%) | ++ (5%≤ ++ <25%) | ++ (5%≤ ++ <25%) | +++ (25%≤ +++ <50%) |  |
| CCNC[C@H]1OCCc2cccc(F)c21 [Example 86, (S)-N-((8-fluoroisochroman-1-yl)methyl)ethanamine] | 10 to 30 mg/kg | ++ (5%≤ ++ <25%) | + (LOQ≤ + <5%) | ++ (5%≤ ++ <25%) | ++ (5%≤ ++ <25%) | ++ (5%≤ ++ <25%) | + (LOQ≤ + <5%) | ++ (5%≤ ++ <25%) | +++ (25%≤ +++ <50%) | + (LOQ≤ + <5%) |  |
| CCNC[C@@H]1OCCc2cccc(F)c21 [Example 87, (R)-N-((8-fluoroisochroman-1-yl)methyl)ethanamine] | < 3 mg/kg | + (LOQ≤ + <5%) | ++ (5%≤ ++ <25%) | ++ (5%≤ ++ <25%) | + (LOQ≤ + <5%) | ++ (5%≤ ++ <25%) | + (LOQ≤ + <5%) | ++ (5%≤ ++ <25%) | + (LOQ≤ + <5%) | ++++ (50%≤ ++++) |  |
| CNC[C@H]1OCc2c(Cl)cccc21 [Example 92, (S)-1-(4-chloro-1,3-dihydroisobenzofuran-1-yl)-N-methylmethanamine] | 10 to 30 mg/kg | + (LOQ≤ + <5%) | ++ (5%≤ ++ <25%) | ++ (5%≤ ++ <25%) | ++ (5%≤ ++ <25%) | ++ (5%≤ ++ <25%) | + (LOQ≤ + <5%) | + (LOQ≤ + <5%) | ++ (5%≤ ++ <25%) | +++ (25%≤ +++ <50%) |  |
| CNC[C@@H]1OCc2c(Cl)cccc21 [Example 93, (R)-1-(4-chloro-1,3-dihydroisobenzofuran-1-yl)-N-methyl-methanamine] | < 3 mg/kg | +++ (25%≤ +++ <50%) | ++ (5%≤ ++ <25%) | +++ (25%≤ +++ <50%) | ++ (5%≤ ++ <25%) | ++ (5%≤ ++ <25%) | + (LOQ≤ + <5%) | + (LOQ≤ + <5%) | ++ (5%≤ ++ <25%) | ++++ (50%≤ ++++) |  |
| Fc1cccc2c1[C@@H](CNC1CCC1)OCC2 [Example 96, (S)-N-((8-fluoroisochroman-1-yl)methyl)cyclobutanamine] |  | + (LOQ≤ + <5%) | + (LOQ≤ + <5%) | + (LOQ≤ + <5%) | + (LOQ≤ + <5%) | + (LOQ≤ + <5%) | + (LOQ≤ + <5%) | + (LOQ≤ + <5%) | +++ (25%≤ +++ <50%) | + (LOQ≤ + <5%) | 10 to 30 mg/kg |

From US10196403B2, “Compounds and compositions and uses thereof” (Sunovion Pharmaceuticals Inc., priority 2016, dated 2019)
